Results on ten compounds are retold here after ChEMBL document CHEMBL1201862, “PubChem BioAssay data set” (2004).

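Protocol summary: plate cells (96-well), add compound at 5 concentrations, incubate 48 h, interpolate endpoints linearly. GI50 = concentration required for 50% inhibition of growth.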 Activity calls are given as the source filed them. No stated cut-off is given here; in the data, active = GI50 up to about 1.1 µM and inactive = higher.

Holding throughout (assay): DTP human tumour cell line panel, 48 h
Test [1] has as its system EKVX.
Test [2] concerns KM12.
For test [3], the system named is SK-MEL-2.
Test [4] has as its system OVCAR-3.
The test system of test [5] is MDA-N.
The test system of test [6] is DU-145.
Test [7] has as its system HCT-116.
Test [8] deals with UACC-257.
In test [9] the test system is BT-549.
In test [10] the test system is TK-10.
For test [11], the system named is LOX IMVI.
Test [12] concerns HOP-92.
For test [13], the system named is SF-539.
The subject of test [14] is RXF 393.
Test [15] has as its system SK-MEL-28.
The subject of test [16] is HCT-15.
Test [17] has as its system UACC-62.
For test [18], the system named is U-251.
The subject of test [19] is NCI-H226.
The test system of test [20] is COLO 205.

The term GI50 denotes the concentration that inhibits growth by half. In the case of `CC1C(c2ccc3c(c2)OCO3)c2cc3c(cc2OC1N1CCOCC1)OCO3` (centres undefined), the GI50 was 37.3 µM (inactive) in test [1]; 20.5 µM (inactive) in [2]; 19.9 µM (inactive) in [3]; 20 µM (inactive) in test [4]; 6.28 µM (inactive) in [5]; 27.8 µM (inactive) in test [6]. Moreover, the GI50 in test [7] is 16 µM (inactive); in [8], 35.4 µM (inactive); in [9], 20 µM (inactive); in test [10], 29.1 µM (inactive); in test [11], 20.9 µM (inactive); in [12], 16.5 µM (inactive). Besides, the GI50 was 18.3 µM (inactive) in test [13]; 20.4 µM (inactive) in test [14]; 23.7 µM (inactive) in test [15]; 19.3 µM in [16]; 20.3 µM (inactive) in test [17]; 19.1 µM (inactive) in test [18]. The GI50 in test [19] is 22 µM (inactive); in test [20] it was 21.1 µM (inactive).

On to `CCC(C)NC(=S)N/N=C(\C)c1ccccn1` (centres undefined), for which the GI50 in [1] is < 0.01 µM (active); in test [2], 0.156 µM (active); in [3], 1.27 µM (inactive); in [4] it was < 0.01 µM (active); in [5] it was 0.57 µM (active); in test [6] it was 1.28 µM (inactive). For the same compound, the 50% growth inhibitory concentration (GI50) in [7] is < 0.01 µM (active); in test [8], < 0.01 µM (active); in [9], 0.444 µM (active); in test [10], 2.87 µM (inactive); in test [11], < 0.0211 µM (active); in test [12], 0.14 µM (active). Also, the GI50 in test [13] was 0.906 µM (active); in test [14], < 0.01 µM (active); in test [15], 1.91 µM (inactive); in test [16] it was less than 0.01 µM; in test [17], 0.0733 µM (active); in test [18], 0.126 µM (active). Also, the GI50 was 0.102 µM (active) in test [19] and < 0.01 µM (active) in test [20].

In the case of `OCC1C2CCC3(OCCO3)C12` (centres undefined), the GI50 in test [1], in test [2], in test [3], in test [4], in test [5] and in test [6] was > 100 µM (inactive) throughout. Besides, the GI50 in test [7] is > 100 µM (inactive); in test [8], > 100 µM (inactive); in test [9], 20.6 µM (inactive); in test [10], > 100 µM (inactive); in [11], > 100 µM (inactive); in test [12] it was > 100 µM (inactive). For the same compound, the GI50 in test [13] was > 100 µM (inactive); in [14] it was > 100 µM (inactive); in test [15] it was > 100 µM (inactive); in test [16], more than 100 µM; in [17], 17.6 µM (inactive); in test [18] it was > 100 µM (inactive). Besides, the GI50 in test [19] and in test [20] was > 100 µM (inactive) each time.

Take `COC(=O)C1=C(O)C(C(=O)OC)[C@@]2(O)[C@@H](C(=O)OC)C(c3ccc(OC(=O)/C(=C/c4ccc(Cl)cc4)c4ccc(Cl)cc4)cc3)C[C@@H]1[C@@H]2C(=O)OC` (some centres undefined): the GI50 was 33.8 µM (inactive) in test [1]; 37.8 µM (inactive) in test [2]; 14.3 µM (inactive) in test [3]; 51.1 µM (inactive) in test [4]; 17.5 µM (inactive) in test [5]; 39 µM (inactive) in test [6]. Also, the GI50 was 11.3 µM (inactive) in test [7]; 52.6 µM (inactive) in test [8]; 95.7 µM (inactive) in test [9]; 16.1 µM (inactive) in test [10]; 14.3 µM (inactive) in test [11]; 19.5 µM (inactive) in [12]. In addition, the GI50 in test [13] is 12.2 µM (inactive); in [14] it was 11.2 µM (inactive); in [15], > 100 µM (inactive); in test [16], 18.5 µM; in [17], 7.29 µM (inactive); in test [18] it was 24.4 µM (inactive). Further, the values for the GI50 in test [19] and in test [20] were 19.5 µM (inactive) and 24 µM (inactive), respectively.

`CCCc1c(Cl)nc(Cl)nc1Cl`: the GI50 in [1] is > 10 µM (inactive); in [2] it was 3.61 µM (inactive); in test [3], 0.352 µM (active); in test [4], 1.01 µM (active); in test [5], 0.211 µM (active); in test [6], 5.47 µM (inactive). Moreover, the GI50 in test [7] was 0.546 µM (active); in [8] it was 2.13 µM (inactive); in test [9], 0.377 µM (active); in test [10] it was 3.44 µM (inactive); in test [11] it was < 0.01 µM (active); in [12], 2.65 µM (inactive). In addition, the GI50 in test [13] is 2.54 µM (inactive); in [14], 1.09 µM (active); in test [15], 0.336 µM (active); in [16], 0.327 µM; in test [17], 0.822 µM (active); in test [18] it was 1.22 µM (inactive). Further, the GI50 was 0.0222 µM (active) in [19] and 0.252 µM (active) in test [20].

As for `Cc1nc(-n2nc(-c3ccccc3)cc2-c2ccccc2)sc1C(/C=C\c1ccc([N+](=O)[O-])cc1)=N/NC(=S)NN`, the GI50 is > 56.6 µM (inactive) in test [1]; 43.7 µM (inactive) in [2]; 44.1 µM (inactive) in test [3]; > 46.8 µM (inactive) in test [4]; 22 µM (inactive) in test [5]; 31 µM (inactive) in [6]. Moreover, the GI50 in test [7] is 19.5 µM (inactive); in [8], > 42.1 µM (inactive); in test [9], 21.3 µM (inactive); in test [10], 37.2 µM (inactive); in [11], 26.1 µM (inactive); in test [12], > 100 µM (inactive). Moreover, the GI50 in [13] was 24.2 µM (inactive); in test [14], 37.4 µM (inactive); in test [15], 45.2 µM (inactive); in test [16] it was 22.8 µM; in test [17], 39.1 µM (inactive); in test [18] it was > 74.3 µM (inactive). Moreover, the values for the GI50 in test [19] and in test [20] were > 46.8 µM (inactive) and > 31.6 µM (inactive), respectively.

Turning to `CN(C)c1ccc(/C=N/NC(=O)c2cnc3ccccc3c2)cc1`, the GI50 in test [1] was 58.6 µM (inactive); in test [2] it was 38.5 µM (inactive); in test [3], > 100 µM (inactive); in test [4], > 100 µM (inactive); in test [5], 4.71 µM (inactive); in test [6], 59.3 µM (inactive). Also, the GI50 in [7] was > 100 µM (inactive); in [8], > 100 µM (inactive); in test [9], 94 µM (inactive); in test [10], 26.3 µM (inactive); in test [11], > 100 µM (inactive); in test [12], 49.4 µM (inactive). For the same compound, the GI50 is 52 µM (inactive) in test [13]; 19.9 µM (inactive) in test [14]; > 100 µM (inactive) in test [15]; more than 100 µM in test [16]; > 100 µM (inactive) in [17]; 38.7 µM (inactive) in test [18]. Also, the GI50 in test [19] and in test [20] was > 100 µM (inactive) throughout.

As to `COc1cc(C2c3cc4c(cc3OC(N3CCCC3)C2C)OCO4)cc(OC)c1OC` (centres undefined), the GI50 in test [1] was 3.53 µM (inactive); in test [2], 0.322 µM (active); in [3] it was 0.394 µM (active); in [4], 0.221 µM (active); in test [5], 0.167 µM (active); in [6], 0.571 µM (active). The GI50 in test [7] is 0.481 µM (active); in test [8] it was 1.07 µM (active); in test [9], 0.515 µM (active); in test [10], 0.938 µM (active); in [11] it was 0.766 µM (active); in [12], 0.973 µM (active). In addition, the GI50 was 0.246 µM (active) in test [13]; 0.286 µM (active) in test [14]; 5.43 µM (inactive) in test [15]; 0.526 µM in test [16]; 0.509 µM (active) in [17]; 0.644 µM (active) in [18]. Further, the GI50 in [19] and in test [20] was 0.433 µM (active) throughout.

On to `CN/N=C(\C)C(CN(C)C)C(c1ccccc1)c1c(O)c2ccccc2oc1=O` (centres undefined), for which the GI50 in [1] is > 100 µM (inactive); in test [2], > 100 µM (inactive); in [3], > 100 µM (inactive); in test [4] it was 49.5 µM (inactive); in [5] it was > 100 µM (inactive); in test [6], > 100 µM (inactive). Also, the GI50 is > 100 µM (inactive) in [7]; > 100 µM (inactive) in [8]; 24.3 µM (inactive) in test [9]; > 100 µM (inactive) in test [10]; > 100 µM (inactive) in test [11]; 0.0574 µM (active) in test [12]. The GI50 in [13] is > 100 µM (inactive); in test [14] it was 0.441 µM (active); in test [15], > 100 µM (inactive); in test [16] it was more than 100 µM; in test [17], 31.3 µM (inactive); in test [18], > 100 µM (inactive). The values for the GI50 in [19] and in test [20] were > 100 µM (inactive) and 40.4 µM (inactive), respectively.

As for `c1ccc(N/N=N/c2ccc(-c3nc4ccccc4[nH]3)cc2)nc1`, the GI50 in [1] is 17.3 µM (inactive); in test [2] it was 13.6 µM (inactive); in test [3], 27 µM (inactive); in [4] it was 15 µM (inactive); in test [5] it was 16.7 µM (inactive); in test [6], 13.2 µM (inactive). The GI50 in [7] is 7.11 µM (inactive); in test [8] it was 23.2 µM (inactive); in test [9] it was 37.5 µM (inactive); in test [10] it was 19.6 µM (inactive); in test [11], 18.5 µM (inactive); in test [12], 17.3 µM (inactive). For the same compound, the GI50 in test [13] was 17.1 µM (inactive); in test [14], 16.4 µM (inactive); in test [15] it was 20.7 µM (inactive); in [16], 15.8 µM; in test [18], 16.5 µM (inactive); in [19] it was 26.3 µM (inactive). Moreover, in test [20], the GI50 was 27 µM (inactive).
